{"source": "paper PMC11336141", "key": {"human SSTR2 [1]": {"target": "T1, human SSTR2 (Homo sapiens, UniProt P30874)", "T1 sequence (P30874 whole entry)": "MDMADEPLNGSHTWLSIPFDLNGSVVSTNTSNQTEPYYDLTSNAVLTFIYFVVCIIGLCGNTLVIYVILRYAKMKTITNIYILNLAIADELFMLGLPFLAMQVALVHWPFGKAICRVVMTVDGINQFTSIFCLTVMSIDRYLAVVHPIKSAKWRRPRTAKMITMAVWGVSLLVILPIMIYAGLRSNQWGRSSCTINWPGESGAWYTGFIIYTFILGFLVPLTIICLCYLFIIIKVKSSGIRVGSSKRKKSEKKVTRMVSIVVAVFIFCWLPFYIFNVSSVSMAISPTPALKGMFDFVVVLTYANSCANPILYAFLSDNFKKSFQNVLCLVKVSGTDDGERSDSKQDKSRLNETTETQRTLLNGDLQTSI", "experiment": "Quantification of ligand bias (operational model), G proteins at hSSTR2", "format": "cell-based", "set-up": "Bryan Roth (Addgene) Addgene kit # 1000000068; host or cells: HTLA cells", "details": "for ∆log(tau/Ka): LogR(ligand) - LogR(SST-14); for LogR ± S.E.M.: log(τ/KA); for RE: relative efficacy; for ∆LogR ± S.E.M.: relative to SS-14; for G protein bias in words: ∆Log(τ/KA), SS-14 as reference", "source_text": "Ligand bias were quantified using the method described in[35]. […] The operational model (2)[35] was used to determine the transduction ratios (τ/KA).2 E=Emin+(Emax−Emin)/1+(1+A/10^logKA)/10^logRA^n where E is the effect of the ligand, [A] is the concentration of test ligands, Emax is the maximal response of the system, Emin is the minimum response of the system, logKA is the logarithm of the equilibrium dissociation constant, n is the slope of the transducer function, log R is the logarithm of the transduction ratio (τ/KA).\nEach experiment was analyzed using the operational model which all individual experiments were fitted with a global shared slope. The LogR (equivalent to log [τ] /KA) values were estimated by GraphPad Prism (v.9.4.1) and were used to calculate the relative efficacy (RE) using Eqs."}, "[2]": {"tested_on": "human SSTR2 (Gi1-3, GoA, GoB)", "experiment": "G protein activation (BRET dissociation) assay, panel of Gi/o proteins at hSSTR2", "format": "cell-based", "details": "hSSTR2, HEK293T cells", "description": "(§1) HEK293T cells were seeded onto 6-well plates at a density of 750,000 cells/well. […] 16 to 24 hours post-transfection, HEK293T cells were seeded onto white 96 well plate (PerkinElmer) coated with poly-L-lysine (PLL) at a density of 40,000 cells/well and were allowed to grow overnight. On the day of assay, cells were washed once with phosphate-based saline (PBS) and 80 µL of assay buffer which composed of PBS with 0.5 mM MgCl2 and 0.1% glucose, pH 7.4, were added onto each well. 10 µL of Nluc luciferase substrate furimazine (Promega) were added onto each well and incubated for 3 minutes.\n(§2) The net BRET ratio was determined by subtracting the BRET ratio of drugs with the BRET ratio of vehicle control. Net BRET ratio over time was then plotted using GraphPad Prism (v.9.4.1), and the area-under-curve of net BRET ratio over time course for each ligand concentration tested were then determined and plotted against log(concentration) of drugs tested. […] Concentration response curves were fitted with a 4-parameter logistic Eq. (1) using GraphPad Prism (v.9.4.1):1 Y=Emin+(Emax−Emin)/1+10^logEC50−X×Hillslope"}, "[3]": {"experiment": "Solubility in aqueous solutions (observation)", "details": "comparison of des-glyco nG1, pG1 and venom fraction"}, "human SSTR2 (GoA)": {"target": "human SSTR2 (GoA) (Homo sapiens, UniProt P30874)", "sequence (P30874 whole entry)": "as above", "experiment": "G protein activation (BRET dissociation) assay, GoA at hSSTR2;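 for Emax: percent of the maximal response to the reference somatostatin agonist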", "description": "as §1, §2"}, "human SSTR2 [4]": {"target": "T1, human SSTR2", "experiment": "PRESTO-Tango β-arrestin recruitment assay, hSSTR2", "description": "HTLA cells were given by Prof. Bryan Roth (University of North Carolina, Chapel Hill, US) and were maintained in Dulbecco’s modified Eagle’s medium (DMEM) supplemented with 10% Fetal Bovine Serum (FBS) (Biowest) and 100 U/mL penicillin and 100 µg/mL streptomycin at 37 °C in a humidified incubator supplemented with 5% CO2. Constant selective pressure for tTA-dependent luciferase reporter and a β-arrestin 2 tobacco etch virus protease fusion gene were maintained with the addition of 100 µg/mL hygromycin B and 2 µg/ml puromycin (Tango growth medium).\nBriefly, HTLA cells (1 million cells/well) were seeded in 6-well plates in Tango growth medium, and incubated overnight. On day 2, medium was changed to Tango growth medium without hygromycin B and puromycin. Cells were then transfected using Polyfect (Qiagen) according to manufacturer’s protocol. On day 3, 15,000 cells in 40 µL DMEM supplemented with 1% dialyzed FBS (Tango assay medium) per well were seeded in poly-D-lysine-coated white clear-bottom 384 well plates (Corning) and incubated overnight. On day 4, the Tango assay medium was changed and 10 µL of each of the peptide was added at 5x final concentration. The peptides were resuspended in HBSS with 20 mM HEPES, 1 mM of CaCl2, 1 mM of MgCl2, pH adjusted to 7.4 with 1 M NaOH (Tango assay buffer), which was supplemented with 0.1% BSA (Tango ligand buffer). After overnight incubation, on day 5, the medium and the compounds were removed from the cells and 20 µL of 1:20 dilution of BrightGlo (Promega) in Tango assay buffer supplemented with 0.01% pluronic F68 was added to the cells. Plates were incubated for 20 minutes in the dark at room temperature. Luminescence was measured on a Molecular Devices SpectraMax iD5 (Molecular Devices) with each well integrated for 1 second."}, "[5]": {"tested_on": "Dr-sstr2a with the ECL2 region of the hSSTR2", "experiment": "Activation of hybrid receptor (ECL2 of hSSTR2 inserted into Dr-sstr2a)", "format": "cell-based", "details": "preliminary results, peer review file", "excerpt": "To further address this, we have begun to perform mutagenesis studies on the Dr-sstr2a."}, "Dr-sstr2b": {"tested_on": "Dr-sstr2b", "experiment": "PRESTO-Tango β-arrestin recruitment assay, Dr-sstr2b", "format": "cell-based, zebrafish (Danio rerio)", "details": "for pEC50: Dr-sstr2b, Fig. S15D", "source_text": "3xHA-tagged human SSTR2 construct was obtained from cDNA.org (cDNA resource center, Bloomsburg PA, US). […] Kirill Martemyanov (University of Florida, US). Tango constructs for human SSTR1-5 were kind gifts from Prof. Bryan Roth (University of North Carolina, Chapel Hill, US) (Addgene kit # 1000000068). Tango constructs for fish Dr-sstr2a (sequence accession number: XP_005170178.1) and Dr-sstr2b (sequence accession number: XP_017210358.1) were custom-synthesized by Twist Biosciences using the Tango construct template as described in Kroeze et al., 2015[28]. 3xHA-tagged Dr-sstr2a and 3xHA tagged Dr-sstr2b constructs were inserted into pcDNA3.1 backbone. All DNA constructs were sequenced and confirmed prior to use.\nThe assay was done as described in ref. [12]."}, "human SSTR2 (Gi1)": {"target": "T2, human SSTR2 (Gi1) (Homo sapiens, UniProt P30874)", "T2 construct": "host or cells: HEK293T cells", "T2 sequence (P30874 whole entry)": "as above", "experiment": "G protein activation (BRET dissociation) assay, Gi1 at hSSTR2;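 for Emax ± S.E.M.: percent of the maximal response to the reference somatostatin agonist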", "format": "cell-based", "description": "as §1, §2"}}, "note": "Bridge positions count the residues as written; N and C are the ends. Square brackets hold non-standard residues; d marks the D form. Peptide text beside a SMILES is read from it.", "data": [{"smiles": "CC(C)C[C@H](N)C(=O)N[C@@H](Cc1ccccc1)C(=O)N[C@H]1CSSC[C@@H](C(=O)N[C@@H](Cc2c[nH]c3ccccc23)C(=O)O)NC(=O)[C@H](CO)NC(=O)[C@H](CCCCN)NC(=O)[C@@H](Cc2c[nH]c3ccccc23)NC(=O)[C@H](Cc2ccccc2)NC1=O", "note": "[pG1] (H-LFCF[dW]KSCW-OH; disulfide 3-8)", "values": [{"measurement": "∆log(tau/Ka)", "setting": "human SSTR2 [1]; Gi1 (Gαi1)", "result": -1.977}, {"measurement": "LogR, Mean", "setting": "human SSTR2 [1]; Gi1, N: SS-14 4, Octreotide 2, pG1 4", "result": 7.421}, {"measurement": "LogR", "setting": "human SSTR2 [1]; Gi1, replicate 1 (row r6)", "result": 7.197}, {"measurement": "LogR", "setting": "human SSTR2 [1]; Gi1, replicate 2 (row r7)", "result": 7.651}, {"measurement": "LogR", "setting": "human SSTR2 [1]; Gi1, replicate 3 (row r8)", "result": 7.8528}, {"measurement": "LogR", "setting": "human SSTR2 [1]; Gi1, replicate 4 (row r9)", "result": 6.983}, {"measurement": "∆log(tau/Ka)", "setting": "human SSTR2 [1]; Gi2 (Gαi2)", "result": -1.482}, {"measurement": "LogR, Mean", "setting": "human SSTR2 [1]; Gi2, N: SS-14 5, Octreotide 3, pG1 5", "result": 7.871}, {"measurement": "LogR", "setting": "human SSTR2 [1]; Gi2, replicate 1 (row r6)", "result": 7.692}, {"measurement": "LogR", "setting": "human SSTR2 [1]; Gi2, replicate 2 (row r7)", "result": 7.679}, {"measurement": "LogR", "setting": "human SSTR2 [1]; Gi2, replicate 3 (row r8)", "result": 7.686}, {"measurement": "LogR", "setting": "human SSTR2 [1]; Gi2, replicate 4 (row r9)", "result": 8.256}, {"measurement": "LogR", "setting": "human SSTR2 [1]; Gi2, replicate 5 (row r10)", "result": 8.0434}, {"measurement": "∆log(tau/Ka)", "setting": "human SSTR2 [1]; Gi3 (Gαi3)", "result": -1.406}, {"measurement": "LogR, Mean", "setting": "human SSTR2 [1]; Gi3, N: SS-14 3, Octreotide 2, pG1 3", "result": 8.305}, {"measurement": "LogR", "setting": "human SSTR2 [1]; Gi3, replicate 1 (row r6)", "result": 7.832}, {"measurement": "LogR", "setting": "human SSTR2 [1]; Gi3, replicate 2 (row r7)", "result": 8.615}, {"measurement": "LogR", "setting": "human SSTR2 [1]; Gi3, replicate 3 (row r8)", "result": 8.468}, {"measurement": "∆log(tau/Ka)", "setting": "human SSTR2 [1]; GoA (GαoA)", "result": -1.083}, {"measurement": "LogR, Mean", "setting": "human SSTR2 [1]; GoA, N: SS-14 4, Octreotide 2, pG1 2", "result": 8.753}, {"measurement": "LogR", "setting": "human SSTR2 [1]; GoA, replicate 1 (row r6)", "result": 8.653}, {"measurement": "LogR", "setting": "human SSTR2 [1]; GoA, replicate 4 (row r9)", "result": 8.853}, {"measurement": "∆log(tau/Ka)", "setting": "human SSTR2 [1]; GoB (GαoB)", "result": -1.118}, {"measurement": "LogR, Mean", "setting": "human SSTR2 [1]; GoB, N: SS-14 2, Octreotide 2, pG1 3", "result": 8.505}, {"measurement": "LogR", "setting": "human SSTR2 [1]; GoB, replicate 1 (row r6)", "result": 8.36}, {"measurement": "LogR", "setting": "human SSTR2 [1]; GoB, replicate 2 (row r7)", "result": 8.764}, {"measurement": "LogR", "setting": "human SSTR2 [1]; GoB, replicate 3 (row r8)", "result": 8.39}, {"measurement": "LogR ± S.E.M.", "setting": "human SSTR2 [1]; Gαi1", "result": "7.42 ± 0.20"}, {"measurement": "RE", "setting": "human SSTR2 [1]; Gαi1, 10^∆log(τ/KA)", "result": 0.01}, {"measurement": "∆LogR ± S.E.M.", "setting": "human SSTR2 [1]; Gαi1", "result": "-1.98 ± 0.27"}, {"measurement": "LogR ± S.E.M.", "setting": "human SSTR2 [1]; Gαi2", "result": "7.87 ± 0.12"}, {"measurement": "RE", "setting": "human SSTR2 [1]; Gαi2", "result": 0.033}, {"measurement": "∆LogR ± S.E.M.", "setting": "human SSTR2 [1]; Gαi2", "result": "-1.48 ± 0.31"}, {"measurement": "LogR ± S.E.M.", "setting": "human SSTR2 [1]; Gαi3", "result": "8.30 ± 0.24"}, {"measurement": "RE", "setting": "human SSTR2 [1]; Gαi3", "result": 0.039}, {"measurement": "∆LogR ± S.E.M.", "setting": "human SSTR2 [1]; Gαi3", "result": "-1.41 ± 0.26"}, {"measurement": "LogR ± S.E.M.", "setting": "human SSTR2 [1]; GαoA", "result": "8.75 ± 0.10"}, {"measurement": "RE", "setting": "human SSTR2 [1]; GαoA", "result": 0.082}, {"measurement": "∆LogR ± S.E.M.", "setting": "human SSTR2 [1]; GαoA", "result": "-1.08 ± 0.13"}, {"measurement": "LogR ± S.E.M.", "setting": "human SSTR2 [1]; GαoB", "result": "8.50 ± 0.13"}, {"measurement": "RE", "setting": "human SSTR2 [1]; GαoB", "result": 0.076}, {"measurement": "∆LogR ± S.E.M.", "setting": "human SSTR2 [1]; GαoB", "result": "-1.12 ± 0.14"}, {"measurement": "G protein bias in words", "setting": "human SSTR2 [1]", "result": "does not bias towards Gi1 protein but preferentially couples to GoA and GoB protein"}, {"measurement": "G protein bias in words", "setting": "human SSTR2 [1]; listed as Consomatin pG1", "result": "displays G protein bias towards Go subunits"}, {"measurement": "Gi/o protein dissociation in words", "setting": "[2]", "result": "weaker potencies at dissociating all Gi/o proteins compared to SS-14"}, {"measurement": "Gi/o protein dissociation in words", "setting": "[2]; listed as Consomatin pG1", "result": "weaker potencies in dissociating different Gαi/o protein compared to SS-14 and octreotide"}, {"measurement": "solubility in aqueous solutions in words", "setting": "[3]", "result": "did not observe any obvious differences in the solubility"}, {"measurement": "EC50", "setting": "human SSTR2 (GoA)", "result": 5.13, "unit": "nM"}, {"measurement": "Hill Slope", "setting": "human SSTR2 (GoA); Table S2, GαoA", "result": "1.04 ± 0.25"}, {"measurement": "Span ± S.E.M.", "setting": "human SSTR2 (GoA); Table S2, GαoA", "result": "97.45 ± 6.80"}, {"measurement": "GoA activation/dissociation in words", "setting": "human SSTR2 (GoA); hSSTR2, HEK293T cells", "result": "most potent at dissociating GoA protein among all Gi/o proteins tested"}, {"measurement": "Emax", "setting": "human SSTR2 (GoA); read-out: Emax ± S.E.M.", "result": "97.9 ± 4.11", "unit": "%"}, {"measurement": "EC50", "setting": "human SSTR2 [4]", "result": 3.55, "unit": "nM"}, {"measurement": "activation of hSSTR2 in words", "setting": "human SSTR2 [4]; PRESTO-Tango, HTLA cells", "result": "potent and selective SSTR2 full agonist"}, {"measurement": "Hill Slope", "setting": "human SSTR2 [4]; Table S1", "result": "0.50 ± 0.06"}, {"measurement": "Span ± S.E.M.", "setting": "human SSTR2 [4]; Table S1", "result": "106.03 ± 6.98"}, {"measurement": "Emax", "setting": "human SSTR2 [4]; read-out: Emax ± S.E.M., Table S1, % of maximal response relative to SS-14", "result": "105 ± 3.01", "unit": "%"}, {"measurement": "activation of hybrid receptor in words", "setting": "[5]", "result": "activation of this hybrid receptor"}, {"measurement": "pEC50", "setting": "Dr-sstr2b; replicate 1", "result": 7.529}, {"measurement": "pEC50", "setting": "Dr-sstr2b; replicate 2", "result": 7.491}, {"measurement": "pEC50", "setting": "Dr-sstr2b; replicate 3", "result": 7.611}, {"measurement": "pEC50", "setting": "Dr-sstr2b; replicate 4", "result": 7.82}, {"measurement": "activation of Dr-sstr2b in words", "setting": "Dr-sstr2b; PRESTO-Tango, HTLA cells", "result": "activates the zebrafish Dr-sstr2b (n = 3) but not Dr-sstr2a"}, {"measurement": "Hill Slope", "setting": "Dr-sstr2b; Table S4", "result": "0.90 ± 0.13"}, {"measurement": "Span ± S.E.M.", "setting": "Dr-sstr2b; Table S4", "result": "82.46 ± 4.04"}, {"measurement": "EC50", "setting": "Dr-sstr2b; Table S4, HTLA cells", "result": 25.3, "unit": "nM"}, {"measurement": "Emax ± S.E.M.", "setting": "Dr-sstr2b; Table S4, relative to SS-14", "result": "83.12 ± 3.13"}, {"measurement": "Emax", "setting": "human SSTR2 (Gi1)", "result": "95.6 ± 8.52", "unit": "%"}, {"measurement": "Hill Slope", "setting": "human SSTR2 (Gi1); Table S2, Gαi1", "result": "0.81 ± 0.28"}, {"measurement": "Span ± S.E.M.", "setting": "human SSTR2 (Gi1); Table S2, Gαi1", "result": "87.89 ± 11.1"}, {"measurement": "EC50", "setting": "human SSTR2 (Gi1); Table S2, Gαi1, HEK293T, means ± S.E.M.", "result": 6.46, "unit": "nM"}]}]}
